Measurements reported in patent US9163256B2, “Mutant receptors and their use in a nuclear receptor-based inducible gene expression system” (priority 2004, dated 2015).

Experiments:
Experiment in all cases: GAL4-driven luciferase reporter assay in NIH3T3 cells
Type in all cases: cell-based
CfEcR-DEF mutant F48K = CfEcR-DEF mutant F48K (Choristoneura fumiferana, UniProt O77255, F331K); settings: for Emax: NIH3T3, 40 h, read-out: Rel Max FI
Method: (§1) This construct was prepared in the same way as in switch 1.1 above except wild-type CfEcR-DEF was replaced with mutant CfEcR-DEF comprising a ligand binding domain comprising a substitution mutation selected from Table 1 below.
(§2) DNAs were transfected into mouse NIH3T3 cells (ATCC) as follows. Standard methods for culture and maintenance of the cells were followed. Cells were harvested and plated 96-well plates at 2,500 cells per well, in 50 μL of growth medium containing 10% fetal bovine serum (FBS). Twenty-four hours later, the cells were treated with 35 μL of serum-free growth medium containing either dimethylsulfoxide (DMSO; control) or a DMSO solution of ligand. The cells were then transfected using Superfect (Qiagen Inc.) transfection reagent. For each well, 0.625 μL of Superfect was mixed with 14.2 μL of serum-free growth medium. 0.16 μg of reporter construct and 0.04 μg of each receptor construct were added to the transfection reagent mix. The contents of the transfection mix were mixed in a vortex mixer and let stand at room temperature for 30 minutes. At the end of incubation, 15 μL of transfection mix was added to the cells. The cells were maintained at 37° C. and 5% CO2 for 48 hours in 5% FBS.
(§3) Reporter Assays: Cells were harvested 40 hours after adding ligands. 125 μL of passive lysis buffer (part of Dual-Luciferase reporter assay system from Promega Corporation) were added to each well of the […] plate. The plates were placed on a rotary shaker for 15 minutes. Twenty μL of lysate were assayed. Luciferase activity was measured using Dual-Luciferase reporter assay system from Promega Corporation following the manufacturer's instructions. Fold induction (FI) activities were calculated by dividing relative light units (“RLU”) in ligand treated cells with RLU in DMSO treated cells (untreated control).

CfEcR-DEF mutant F48R = CfEcR-DEF mutant F48R (Choristoneura fumiferana, UniProt O77255, F331R); settings: for Emax: NIH3T3, 40 h, read-out: Rel Max FI
Method: as §1, §2, §3

CfEcR-DEF mutant I51M = CfEcR-DEF mutant I51M (Choristoneura fumiferana, UniProt O77255, I334M); settings: for Emax: NIH3T3, 40 h, read-out: Rel Max FI
Method: as §1, §2, §3

CfEcR-DEF mutant L132E = CfEcR-DEF mutant L132E (Choristoneura fumiferana, UniProt O77255, L415E); settings: for Emax: NIH3T3, 40 h, read-out: Rel Max FI
Method: as §1, §2, §3

CfEcR-DEF mutant L223K = CfEcR-DEF mutant L223K (Choristoneura fumiferana, UniProt O77255, L506K); settings: for Emax: NIH3T3, 40 h, read-out: Rel Max FI
Method: as §1, §2, §3

CfEcR-DEF mutant L223R = CfEcR-DEF mutant L223R (Choristoneura fumiferana, UniProt O77255, L506R); settings: for Emax: NIH3T3, 40 h, read-out: Rel Max FI
Method: as §1, §2, §3

CfEcR-DEF mutant L223Y = CfEcR-DEF mutant L223Y (Choristoneura fumiferana, UniProt O77255, L506Y); settings: for Emax: NIH3T3, 40 h, read-out: Rel Max FI
Method: as §1, §2, §3

CfEcR-DEF mutant L234R = CfEcR-DEF mutant L234R (Choristoneura fumiferana, UniProt O77255, L517R); settings: for Emax: NIH3T3, 40 h, read-out: Rel Max FI
Method: as §1, §2, §3

CfEcR-DEF mutant L234W = CfEcR-DEF mutant L234W (Choristoneura fumiferana, UniProt O77255, L517W); settings: for Emax: NIH3T3, 40 h, read-out: Rel Max FI
Method: as §1, §2, §3

CfEcR-DEF mutant M125G = CfEcR-DEF mutant M125G (Choristoneura fumiferana, UniProt O77255, M408G)
Method: as §1, §2, §3

CfEcR-DEF mutant M125I = CfEcR-DEF mutant M125I (Choristoneura fumiferana, UniProt O77255, M408I); settings: for Emax: NIH3T3, 40 h, read-out: Rel Max FI
Method: as §1, §2, §3

CfEcR-DEF mutant M125N = CfEcR-DEF mutant M125N (Choristoneura fumiferana, UniProt O77255, M408N)
Method: as §1, §2, §3

CfEcR-DEF mutant M125S = CfEcR-DEF mutant M125S (Choristoneura fumiferana, UniProt O77255, M408S)
Method: as §1, §2, §3

CfEcR-DEF mutant M125V = CfEcR-DEF mutant M125V (Choristoneura fumiferana, UniProt O77255, M408V); settings: for Emax: NIH3T3, 40 h, read-out: Rel Max FI
Method: as §1, §2, §3

CfEcR-DEF mutant M219A = CfEcR-DEF mutant M219A (Choristoneura fumiferana, UniProt O77255, M502A); settings: for Emax: NIH3T3, 40 h, read-out: Rel Max FI
Method: as §1, §2, §3

CfEcR-DEF mutant M219K = CfEcR-DEF mutant M219K (Choristoneura fumiferana, UniProt O77255, M502K); settings: for Emax: NIH3T3, 40 h, read-out: Rel Max FI
Method: as §1, §2, §3

CfEcR-DEF mutant M219W = CfEcR-DEF mutant M219W (Choristoneura fumiferana, UniProt O77255, M502W); settings: for Emax: NIH3T3, 40 h, read-out: Rel Max FI
Method: as §1, §2, §3

CfEcR-DEF mutant M219Y = CfEcR-DEF mutant M219Y (Choristoneura fumiferana, UniProt O77255, M502Y); settings: for Emax: NIH3T3, 40 h, read-out: Rel Max FI
Method: as §1, §2, §3

CfEcR-DEF mutant T52G = CfEcR-DEF mutant T52G (Choristoneura fumiferana, UniProt O77255, T335G); settings: for Emax: NIH3T3, 40 h, read-out: Rel Max FI
Method: as §1, §2, §3

CfEcR-DEF mutant T52M = CfEcR-DEF mutant T52M (Choristoneura fumiferana, UniProt O77255, T335M); settings: for Emax: NIH3T3, 40 h, read-out: Rel MaxFI
Method: as §1, §2, §3

CfEcR-DEF mutant T52Q = CfEcR-DEF mutant T52Q (Choristoneura fumiferana, UniProt O77255, T335Q); settings: for Emax: NIH3T3, 40 h, read-out: Rel Max FI
Method: as §1, §2, §3

CfEcR-DEF mutant T52R = CfEcR-DEF mutant T52R (Choristoneura fumiferana, UniProt O77255, T335R); settings: for Emax: NIH3T3, 40 h, read-out: Rel Max FI
Method: as §1, §2, §3

CfEcR-DEF mutant T52W = CfEcR-DEF mutant T52W (Choristoneura fumiferana, UniProt O77255, T335W)
Method: as §1, §2, §3

CfEcR-DEF mutant W238L = CfEcR-DEF mutant W238L (Choristoneura fumiferana, UniProt O77255, W521L); settings: for Emax: NIH3T3, 40 h, read-out: Rel Max FI
Method: as §1, §2, §3

CfEcR-DEF mutant W238M = CfEcR-DEF mutant W238M (Choristoneura fumiferana, UniProt O77255, W521M); settings: for Emax: NIH3T3, 40 h, read-out: Rel MaxFI
Method: as §1, §2, §3

Sequence of CfEcR-DEF mutant L234R (O77255 entry or part of it L517R): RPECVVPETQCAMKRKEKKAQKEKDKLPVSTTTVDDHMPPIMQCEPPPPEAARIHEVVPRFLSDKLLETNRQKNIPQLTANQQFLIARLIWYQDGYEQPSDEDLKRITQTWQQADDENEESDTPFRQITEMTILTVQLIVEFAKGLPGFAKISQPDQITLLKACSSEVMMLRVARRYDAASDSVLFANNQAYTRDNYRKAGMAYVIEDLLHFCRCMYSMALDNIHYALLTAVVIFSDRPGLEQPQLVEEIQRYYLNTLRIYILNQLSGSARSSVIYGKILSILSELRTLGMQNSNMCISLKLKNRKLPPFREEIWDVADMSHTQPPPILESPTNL
Sequence of CfEcR-DEF mutant L234R (P28702 299-449, further chain): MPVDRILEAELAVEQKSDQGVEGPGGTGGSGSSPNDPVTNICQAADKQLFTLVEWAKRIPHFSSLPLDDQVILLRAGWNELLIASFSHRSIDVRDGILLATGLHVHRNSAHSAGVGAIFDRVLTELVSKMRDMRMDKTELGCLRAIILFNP
Sequence of CfEcR-DEF mutant M219A (O77255 entry or part of it M502A): as the sequence (O77255 entry or part of it L517R) above, with M296A, R311L counted along it
Sequence of CfEcR-DEF mutant M219A (P28702 299-449, further chain): as the sequence (P28702 299-449, further chain) above
Sequence of CfEcR-DEF mutant M125V (O77255 entry or part of it M408V): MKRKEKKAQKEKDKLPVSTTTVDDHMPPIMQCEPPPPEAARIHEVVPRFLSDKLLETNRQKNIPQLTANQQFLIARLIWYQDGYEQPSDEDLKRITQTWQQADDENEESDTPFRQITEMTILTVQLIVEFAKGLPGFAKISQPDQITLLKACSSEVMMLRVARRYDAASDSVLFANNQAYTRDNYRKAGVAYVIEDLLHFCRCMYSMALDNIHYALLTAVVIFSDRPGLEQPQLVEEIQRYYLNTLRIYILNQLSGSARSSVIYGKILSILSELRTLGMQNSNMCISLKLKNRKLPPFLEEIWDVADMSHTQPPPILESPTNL
Sequence of CfEcR-DEF mutant M125V (P28702 299-449, further chain): as the sequence (P28702 299-449, further chain) above
Sequence of CfEcR-DEF mutant T52R (O77255 entry or part of it T335R): as the sequence (O77255 entry or part of it M408V) above, with T117R, V190M counted along it
Sequence of CfEcR-DEF mutant T52R (P28702 299-449, further chain): as the sequence (P28702 299-449, further chain) above
Sequence of CfEcR-DEF mutant L234W (O77255 entry or part of it L517W): as the sequence (O77255 entry or part of it L517R) above, with R311W counted along it
Sequence of CfEcR-DEF mutant L234W (P28702 299-449, further chain): as the sequence (P28702 299-449, further chain) above
Sequence of CfEcR-DEF mutant F48K (O77255 entry or part of it F331K): as the sequence (O77255 entry or part of it M408V) above, with F113K, V190M counted along it
Sequence of CfEcR-DEF mutant F48K (P28702 299-449, further chain): as the sequence (P28702 299-449, further chain) above
Sequence of CfEcR-DEF mutant T52W (O77255 entry or part of it T335W): as the sequence (O77255 entry or part of it M408V) above, with T117W, V190M counted along it
Sequence of CfEcR-DEF mutant T52W (P28702 299-449, further chain): as the sequence (P28702 299-449, further chain) above
Sequence of CfEcR-DEF mutant L223K (P28702 298-449): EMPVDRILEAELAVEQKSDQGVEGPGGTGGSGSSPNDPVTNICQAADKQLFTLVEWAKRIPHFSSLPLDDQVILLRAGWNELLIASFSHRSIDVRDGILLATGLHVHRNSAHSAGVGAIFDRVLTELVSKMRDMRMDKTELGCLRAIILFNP
Sequence of CfEcR-DEF mutant L223K (O77255 entry or part of it L506K): as the sequence (O77255 entry or part of it L517R) above, with L300K, R311L counted along it
Sequence of CfEcR-DEF mutant L132E (O77255 entry or part of it L415E): as the sequence (O77255 entry or part of it L517R) above, with L209E, R311L counted along it
Sequence of CfEcR-DEF mutant L132E (P28702 298-449, further chain): as the sequence (P28702 298-449) above

CCc1c(C(=O)NN(C(=O)c2cc(OC)c(C)c(OC)c2)C(C=C(C)C(C)(C)C)C(C)(C)C)ccc2c1OCCO2 (centres unmarked) [RG-115898, 3,5-dimethoxy-4-methyl-benzoic acid N-(1-tert-butyl-3,4,4-trimethyl-pent-2-enyl)-N′-(5-ethyl-2,3-dihydro-benzo[1,4]dioxine-6-carbonyl)-hydrazide]
EC50 (CfEcR-DEF mutant F48K): > 33 µM
Emax (CfEcR-DEF mutant F48K): 8%
EC50 (CfEcR-DEF mutant F48R): > 33 µM
Emax (CfEcR-DEF mutant F48R): 0%
EC50 (CfEcR-DEF mutant I51M): > 33 µM
Emax (CfEcR-DEF mutant I51M): 2%
EC50 (CfEcR-DEF mutant L132E): 2.15 µM
Emax (CfEcR-DEF mutant L132E): 34%
Emax (CfEcR-DEF mutant L223K): 18%
EC50 (CfEcR-DEF mutant L223R): > 33 µM
Emax (CfEcR-DEF mutant L223R): 1%
EC50 (CfEcR-DEF mutant L223Y): 0.33 µM
Emax (CfEcR-DEF mutant L223Y): 20%
EC50 (CfEcR-DEF mutant L234R): > 33 µM
Emax (CfEcR-DEF mutant L234R): 58%
EC50 (CfEcR-DEF mutant L234W): > 33 µM
Emax (CfEcR-DEF mutant L234W): 2%
EC50 (CfEcR-DEF mutant M125G): 0.08 µM
EC50 (CfEcR-DEF mutant M125I): > 33 µM
Emax (CfEcR-DEF mutant M125I): 0%
EC50 (CfEcR-DEF mutant M125N): 0.94 µM
EC50 (CfEcR-DEF mutant M125S): 0.33 µM
EC50 (CfEcR-DEF mutant M125V): > 33 µM
Emax (CfEcR-DEF mutant M125V): 1%
EC50 (CfEcR-DEF mutant M219A): 1 µM
Emax (CfEcR-DEF mutant M219A): 5%
EC50 (CfEcR-DEF mutant M219K): > 33 µM
Emax (CfEcR-DEF mutant M219K): 0%
EC50 (CfEcR-DEF mutant M219W): > 33 µM
Emax (CfEcR-DEF mutant M219W): 0%
EC50 (CfEcR-DEF mutant M219Y): > 33 µM
Emax (CfEcR-DEF mutant M219Y): 1%
EC50 (CfEcR-DEF mutant T52G): > 33 µM
Emax (CfEcR-DEF mutant T52G): 1%
EC50 (CfEcR-DEF mutant T52M): > 33 µM
Emax (CfEcR-DEF mutant T52M): 1%
EC50 (CfEcR-DEF mutant T52Q): 20 µM
Emax (CfEcR-DEF mutant T52Q): 8%
EC50 (CfEcR-DEF mutant T52R): > 33 µM
Emax (CfEcR-DEF mutant T52R): 0%
EC50 (CfEcR-DEF mutant T52W): 0.18 µM
Emax (CfEcR-DEF mutant T52W; NIH3T3, 40 h, read-out: Rel Max FI): 424%
EC50 (CfEcR-DEF mutant W238L): > 33 µM
Emax (CfEcR-DEF mutant W238L): 0%
EC50 (CfEcR-DEF mutant W238M): > 33 µM
Emax (CfEcR-DEF mutant W238M): 3%

CCCCC(N(NC(=O)c1ccc(CC)cc1)C(=O)c1cc(C)cc(C)c1)C(C)(C)C (centres unmarked) [RG-115840, 3,5-dimethyl-benzoic acid N-(1-tert-butyl-pentyl)-N′-(4-ethyl-benzoyl)-hydrazide]
EC50 (CfEcR-DEF mutant F48K): 3.76 µM
Emax (CfEcR-DEF mutant F48K): 18%
EC50 (CfEcR-DEF mutant F48R): 3.58 µM
Emax (CfEcR-DEF mutant F48R): 265%
EC50 (CfEcR-DEF mutant I51M): 4.13 µM
Emax (CfEcR-DEF mutant I51M): 27%
EC50 (CfEcR-DEF mutant L132E): 1.67 µM
Emax (CfEcR-DEF mutant L132E): 156%
EC50 (CfEcR-DEF mutant L223K): 1 µM
Emax (CfEcR-DEF mutant L223K): 93%
EC50 (CfEcR-DEF mutant L223R): 2 µM
Emax (CfEcR-DEF mutant L223R): 25%
EC50 (CfEcR-DEF mutant L223Y): 0.58 µM
Emax (CfEcR-DEF mutant L223Y): 142%
EC50 (CfEcR-DEF mutant L234R): 20 µM
Emax (CfEcR-DEF mutant L234R): 224%
EC50 (CfEcR-DEF mutant L234W): > 33 µM
Emax (CfEcR-DEF mutant L234W): 6%
EC50 (CfEcR-DEF mutant M125G): 2.97 µM
EC50 (CfEcR-DEF mutant M125I): 3.02 µM
Emax (CfEcR-DEF mutant M125I): 45%
EC50 (CfEcR-DEF mutant M125N): 3.3 µM
EC50 (CfEcR-DEF mutant M125S): 1.4 µM
EC50 (CfEcR-DEF mutant M125V): 3.79 µM
Emax (CfEcR-DEF mutant M125V): 47%
EC50 (CfEcR-DEF mutant M219A): 2.87 µM
Emax (CfEcR-DEF mutant M219A): 60%
EC50 (CfEcR-DEF mutant M219K): > 33 µM
Emax (CfEcR-DEF mutant M219K): 1%
EC50 (CfEcR-DEF mutant M219W): 2.33 µM
Emax (CfEcR-DEF mutant M219W): 39%
EC50 (CfEcR-DEF mutant M219Y): 1 µM
Emax (CfEcR-DEF mutant M219Y): 68%
EC50 (CfEcR-DEF mutant T52G): 3.61 µM
Emax (CfEcR-DEF mutant T52G): 23%
EC50 (CfEcR-DEF mutant T52M): 5 µM
Emax (CfEcR-DEF mutant T52M): 15%
EC50 (CfEcR-DEF mutant T52Q): 2 µM
Emax (CfEcR-DEF mutant T52Q): 34%
EC50 (CfEcR-DEF mutant T52R): > 33 µM
Emax (CfEcR-DEF mutant T52R): 2%
EC50 (CfEcR-DEF mutant T52W): 4.07 µM
EC50 (CfEcR-DEF mutant W238L): 2 µM
Emax (CfEcR-DEF mutant W238L): 41%
EC50 (CfEcR-DEF mutant W238M): 2 µM
Emax (CfEcR-DEF mutant W238M): 41%
